Measurements published in patent publication US5514653A, “Method of blocking the SEC receptor” (Washington University, priority 1994, dated 1996).
Entries after “also recorded” stand apart in the source; their conditions may differ. Read-outs that look alike come from different tables or passages of the source. No end group written: not given here.

Tests used:
[1] = biological target: substance P receptor (Homo sapiens, UniProt P25103); conditions: cited from earlier work
[2] = system: PC12 cells; assay: MTT assay of neurotoxicity in PC12 cells; format: cell-based; conditions: for effect on MTT reduction: FIG. 1 and 2
Description: (§1) The MTT assay (19) was used to monitor the neurotoxicity of amyloid-β peptide. […] Inhibition of MTT reduction is a specific, early indicator of amyloid-β-mediated cytotoxicity. The PC12 cell line was used because it is the most well characterized cell line of neuronal origin and because previous studies have shown there is abundant expression of SEC receptor in this cell line.
(§2) First, the effect of amyloid-β 25-35 on MTT reduction in PC12 cells was examined (FIG. 1). PC12 cells were incubated for six (6) hours at 37° C. with amyloid-β 25-35 in several different concentrations as shown on the horizontal axis. MTT was added and the cells incubated at 37° C. for another two (2) hours. Cell extraction buffer was added and the incubation continued at 37° C. overnight. Cell extracts were then subjected to spectro-photometric analysis at 570 nm.
Second, the specificity of the effect of amyloid-β 25-35 on MTT reduction in PC12 cells was examined (FIG. 2).
(§3) In the MTT assay used herein, inhibition of cellular redox activity is measured by 3- 4,5-dimethylthiazol-2-yl!-2,5-diphenyltetrazolium bromide (MTT) by conventional procedures as described by Hansen et al. (19).

[3] = system: neutrophils; conditions: cited from earlier work
[4] = system: SEC receptor; conditions: cited from earlier work
[5] = system: PC12 cells; assay: Inhibition of amyloid-β 25-35 neurotoxicity (MTT assay) in PC12 cells; format: cell-based; conditions: FIG. 3 and 4
Description: as §1, with “line. Using ^125 I peptide 105Y there is specific, saturable binding.” for “line.”
as §2, with “[…] Results” for “Cell extracts”, “reported as percent control response as determined by the difference between control cells and cells lysed prior” for “then subjected”, “incubation with MTT. […]” for “spectro-photometric analysis at 570 nm.”
as §3

[6] = system: neurons; conditions: cited from earlier work
[7] = system: SEC receptor; assay: Competition for binding to the SEC receptor

Sequence of substance P receptor (P25103 whole entry, species assumed): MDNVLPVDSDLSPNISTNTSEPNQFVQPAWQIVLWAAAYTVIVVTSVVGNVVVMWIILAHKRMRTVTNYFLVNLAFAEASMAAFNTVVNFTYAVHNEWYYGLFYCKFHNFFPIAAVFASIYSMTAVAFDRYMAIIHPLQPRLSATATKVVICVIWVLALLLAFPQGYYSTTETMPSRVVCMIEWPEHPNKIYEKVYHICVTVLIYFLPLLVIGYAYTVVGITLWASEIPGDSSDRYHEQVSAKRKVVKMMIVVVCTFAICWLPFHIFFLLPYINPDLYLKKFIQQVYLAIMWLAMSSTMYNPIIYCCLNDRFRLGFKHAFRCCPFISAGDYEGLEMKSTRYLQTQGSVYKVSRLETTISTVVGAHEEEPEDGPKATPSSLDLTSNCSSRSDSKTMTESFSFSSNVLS

**Q.** For `CSCC[C@H](NC(=O)[C@H](CC(C)C)NC(=O)[C@H](Cc1cnc[nH]1)NC(=O)CNC(=O)[C@@H](NC(=O)[C@H](C)NC(=O)[C@H](Cc1c[nH]c2ccccc12)NC(=O)[C@H](CCC(N)=O)NC(=O)[C@H](CC(N)=O)NC(=O)CNC(=O)[C@H](CC(C)C)NC(=O)[C@H](CCCN=C(N)N)NC(=O)[C@H](CCC(N)=O)NC(=O)[C@@H]1CCC(=O)N1)C(C)C)C(N)=O` [bombesin], which “binding to / recognition by the substance P receptor” value [1] is on record?
**A.** does not recognize

**Q.** For “IAGRSLNPNRVTLRYNKPFILVLFETPGNSLVFLGRISNPATK [PB145]”, which “neurotoxic activity of the peptide by itself” value ([2]; peptide alone) is on record?
**A.** did not have any neurotoxic activity by itself

**Q.** For amyloid-β, which neutrophil chemotactic effect [3] is on record?
**A.** neutrophil chemotactic effects

**Q.** And the “binding to / recognition by the SEC receptor” value [4]?
**A.** bind to the SEC receptor

**Q.** What about the “binding to / recognition by the substance P receptor” value [1] of the same compound?
**A.** does not recognize

**Q.** What about the “binding to / recognition by the substance P receptor” value ([1]; listed as Amyloid-β) of the same compound?
**A.** do not bind to the substance P receptor

**Q.** With “amyloid-β 1-28: region of the amyloid-β protein” as the compound, how does the “effect on MTT reduction” value [2] read?
**A.** no effect

**Q.** For “amyloid-β 1-40: region of the amyloid-β protein”, which “effect on MTT reduction” value [2] is on record?
**A.** effect similar to that of amyloid-β 25-35

**Q.** For “native α1-AT: native α1-antitrypsin, negative control”, which “inhibition of the effect of amyloid-β 25-35 (neurotoxicity)” value [5] is on record?
**A.** does not

**Q.** For neurokinin B, which “binding to / recognition by the SEC receptor” value [4] is on record?
**A.** approximately similar affinities

**Q.** With substance K as the compound, how does the “binding to / recognition by the SEC receptor” value [4] read?
**A.** approximately similar affinities

**Q.** Which “desensitization of the SEC receptor on neutrophils to chemotactic effects of amyloid-β” value [3] does the source give for substance P here?
**A.** elicited homologous desensitization

**Q.** What about the neutrophil chemotactic effect [3] of the same compound?
**A.** neutrophil chemotactic effects

**Q.** What about the “blocking of amyloid-β 25-35 effects on neurons” value [6] of the same compound?
**A.** blocked

**Q.** What about the “binding to / recognition by the SEC receptor” value [4] of the same compound?
**A.** bind to the SEC receptor; also recorded: approximately similar affinities

**Q.** Which “inhibition of the effect of amyloid-β 25-35 (neurotoxicity)” value [5] does the source give for “α1 -AT-elastase complexes: complexes of α1-antitrypsin with elastase which compete for binding to the SEC receptor” here?
**A.** inhibit the effect of amyloid-β 25-35

**Q.** And the “competition for binding to the SEC receptor” value [7]?
**A.** compete for binding to the SEC receptor
